In the assay the target is T1, Nuclear factor erythroid 2-related factor 2 (Homo sapiens, UniProt Q16236).
T1 sequence (Q16236 whole entry): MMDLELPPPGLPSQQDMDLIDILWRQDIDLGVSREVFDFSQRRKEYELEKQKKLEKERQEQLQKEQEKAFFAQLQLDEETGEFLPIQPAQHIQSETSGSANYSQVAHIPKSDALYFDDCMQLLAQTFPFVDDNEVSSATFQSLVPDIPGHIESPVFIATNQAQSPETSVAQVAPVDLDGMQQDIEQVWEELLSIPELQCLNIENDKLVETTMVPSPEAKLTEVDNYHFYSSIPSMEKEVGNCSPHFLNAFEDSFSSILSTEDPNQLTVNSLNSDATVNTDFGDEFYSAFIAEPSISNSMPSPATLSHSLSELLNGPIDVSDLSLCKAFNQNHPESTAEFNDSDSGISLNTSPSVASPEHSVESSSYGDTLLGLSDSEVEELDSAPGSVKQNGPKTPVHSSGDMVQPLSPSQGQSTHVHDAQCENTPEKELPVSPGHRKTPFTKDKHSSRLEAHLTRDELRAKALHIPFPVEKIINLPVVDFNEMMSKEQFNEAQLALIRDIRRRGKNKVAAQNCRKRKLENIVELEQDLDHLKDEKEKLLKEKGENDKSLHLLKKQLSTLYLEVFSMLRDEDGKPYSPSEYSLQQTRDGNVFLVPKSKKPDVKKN
The experiment in a line: Activation of ED-tagged Nrf2 in human U2OS cells co-expressing Keap1 assessed as induction of NRF2 translocation to nucleus after 6 hrs by beta-galactosidase based chemiluminescent assay. It counts as cell-based.
What is called EC50 is the concentration at which the effect is half-maximal. For `COc1ccc(OS(=O)(=O)/C=C/c2cccc(Cl)c2)cc1`, the EC50 stood at 0.948 µM.
For `COc1ccccc1OS(=O)(=O)/C=C/c1cccc(Cl)c1`, the EC50 was 0.698 µM.
As for `O=S(=O)(/C=C/c1ccccc1)Nc1ccccc1`, the figure is above 10 µM; as for `COc1ccccc1NS(=O)(=O)/C=C/c1ccccc1Cl`, 6.35 µM; as for `COc1ccc(NS(=O)(=O)/C=C/c2ccccc2Cl)cc1`, above 10 µM.
With `O=S(=O)(/C=C/c1ccccc1Cl)Nc1ccccc1`, the EC50 is above 10 µM.
Take `COc1ccc(OS(=O)(=O)/C=C/c2ccccc2)cc1`: the EC50 was 1.48 µM.
For `O=S(=O)(/C=C/c1ccccc1)Oc1ccccc1` the value was 1.04 µM; for `COc1cccc(OS(=O)(=O)/C=C/c2ccccc2Cl)c1`, 0.165 µM.
As for `COc1ccc(OS(=O)(=O)/C=C/c2ccccc2Cl)cc1`, the figure is 0.237 µM.
As for `COc1ccccc1OS(=O)(=O)/C=C/c1ccc(Cl)cc1`, the figure is 1.33 µM; as for `COc1cccc(OS(=O)(=O)/C=C/c2cccc(Cl)c2)c1`, 0.943 µM; as for `COc1ccc(OS(=O)(=O)/C=C/c2ccc(Cl)cc2)cc1`, 1.16 µM.
Take `COc1cccc(OS(=O)(=O)/C=C/c2ccc(Cl)cc2)c1`: the EC50 is 1.78 µM.
For `COc1cccc(NS(=O)(=O)/C=C/c2ccccc2Cl)c1` the value was above 10 µM.

For the origin of these results see ChEMBL document CHEMBL4304782, “Antioxidant, Anti-inflammatory, and Neuroprotective Effects of Novel Vinyl Sulfonate Compounds as Nrf2 Activator” (ACS Med Chem Lett, 2019).
